Test results reported in US10168342B2, “Lipid probes and uses thereof” (THE SCRIPPS RESEARCH INSTITUTE, priority 2015, dated 2019).

Tests used:
Type in all cases: cell-based
[1] = target: T1, lipid-binding proteins in Neuro2a cells (Mus musculus, UniProt Q8VCD6); experiment: SILAC MS mapping of lipid probe targets (probe-versus-No UV, probe-versus-probe) in Neuro2a cells; conditions: A-DA probe, No UV control, target protein Reep2 (Q8VCD6)
T1 construct: endogenous in cells; host or cells: Neuro2a

[2] = target: T2, lipid-binding proteins in A549 cells (Homo sapiens, UniProt O15173); experiment: SILAC MS mapping of UV-dependent lipid probe targets in A549 cells; conditions: A-DA probe vs NoUV
T2 construct: endogenous in cells; host or cells: A549 (PMA-stimulated for the PTGS2 experiments)
T2 sequence (O15173 whole entry): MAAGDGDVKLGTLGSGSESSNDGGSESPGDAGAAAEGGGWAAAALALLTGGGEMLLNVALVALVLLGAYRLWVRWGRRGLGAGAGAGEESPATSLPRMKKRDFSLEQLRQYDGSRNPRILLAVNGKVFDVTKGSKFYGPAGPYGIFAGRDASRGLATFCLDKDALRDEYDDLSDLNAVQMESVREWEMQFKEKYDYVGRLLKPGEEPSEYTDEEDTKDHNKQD

[3] = target: T3, lipid-binding proteins in A549 cells (Homo sapiens, UniProt O75911); experiment: as above; conditions: A-DA probe vs NoUV
T3 construct: endogenous in cells; host or cells: A549 (PMA-stimulated for the PTGS2 experiments)

[4] = target: T4, lipid-binding proteins in A549 cells (Homo sapiens, UniProt O95470); experiment: as above; conditions: A-DA probe vs NoUV
T4 construct: endogenous in cells; host or cells: A549 (PMA-stimulated for the PTGS2 experiments)

[5] = target: T5, lipid-binding proteins in A549 cells (Homo sapiens, UniProt P07093); experiment: as above; conditions: protein SERPINE2 (P07093), A-DA probe
T5 construct: endogenous in cells; host or cells: A549 (PMA-stimulated for the PTGS2 experiments)

[6] = target: T6, lipid-binding proteins in A549 cells (Homo sapiens, UniProt P07602); experiment: as above; conditions: A-DA probe vs NoUV
T6 construct: endogenous in cells; host or cells: A549 (PMA-stimulated for the PTGS2 experiments)

[7] = target: T7, lipid-binding proteins in A549 cells (Homo sapiens, UniProt P21796); experiment: as above; conditions: A-DA probe vs NoUV
T7 construct: endogenous in cells; host or cells: A549 (PMA-stimulated for the PTGS2 experiments)

[8] = target: T8, lipid-binding proteins in A549 cells (Homo sapiens, UniProt P30519); experiment: as above; conditions: A-DA probe vs NoUV
T8 construct: endogenous in cells; host or cells: A549 (PMA-stimulated for the PTGS2 experiments)
T8 sequence (P30519 whole entry): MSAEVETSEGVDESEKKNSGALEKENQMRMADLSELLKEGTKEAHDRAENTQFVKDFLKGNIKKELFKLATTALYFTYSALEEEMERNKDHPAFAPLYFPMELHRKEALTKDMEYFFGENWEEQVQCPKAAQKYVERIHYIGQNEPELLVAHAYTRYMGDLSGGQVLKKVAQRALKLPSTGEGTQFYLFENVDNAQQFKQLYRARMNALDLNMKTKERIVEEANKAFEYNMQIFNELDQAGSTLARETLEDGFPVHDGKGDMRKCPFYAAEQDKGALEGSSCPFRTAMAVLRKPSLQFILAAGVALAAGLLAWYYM

[9] = target: T9, lipid-binding proteins in A549 cells (Homo sapiens, UniProt P35354); experiment: as above
T9 construct: endogenous in cells; host or cells: A549 (PMA-stimulated for the PTGS2 experiments)
T9 sequence (P35354 18-604): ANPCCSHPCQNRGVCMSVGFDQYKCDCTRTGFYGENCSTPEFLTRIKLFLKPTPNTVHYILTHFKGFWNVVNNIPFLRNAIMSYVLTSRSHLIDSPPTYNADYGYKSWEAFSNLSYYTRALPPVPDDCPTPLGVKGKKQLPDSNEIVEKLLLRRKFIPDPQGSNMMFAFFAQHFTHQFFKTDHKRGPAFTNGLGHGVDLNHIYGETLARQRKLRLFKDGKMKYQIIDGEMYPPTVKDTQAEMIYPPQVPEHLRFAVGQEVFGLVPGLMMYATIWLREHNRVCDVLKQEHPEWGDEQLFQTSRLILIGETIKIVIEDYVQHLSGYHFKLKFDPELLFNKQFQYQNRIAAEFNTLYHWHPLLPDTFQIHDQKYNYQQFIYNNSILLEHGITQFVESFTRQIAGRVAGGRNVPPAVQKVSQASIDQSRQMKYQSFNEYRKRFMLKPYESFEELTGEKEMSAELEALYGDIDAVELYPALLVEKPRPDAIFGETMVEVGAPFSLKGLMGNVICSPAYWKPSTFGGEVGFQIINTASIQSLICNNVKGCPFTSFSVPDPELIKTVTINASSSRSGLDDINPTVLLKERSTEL

[10] = target: T10, lipid-binding proteins in A549 cells (Homo sapiens, UniProt P45880); experiment: as above; conditions: A-DA probe vs NoUV
T10 construct: endogenous in cells; host or cells: A549 (PMA-stimulated for the PTGS2 experiments)
T10 sequence (P45880 whole entry): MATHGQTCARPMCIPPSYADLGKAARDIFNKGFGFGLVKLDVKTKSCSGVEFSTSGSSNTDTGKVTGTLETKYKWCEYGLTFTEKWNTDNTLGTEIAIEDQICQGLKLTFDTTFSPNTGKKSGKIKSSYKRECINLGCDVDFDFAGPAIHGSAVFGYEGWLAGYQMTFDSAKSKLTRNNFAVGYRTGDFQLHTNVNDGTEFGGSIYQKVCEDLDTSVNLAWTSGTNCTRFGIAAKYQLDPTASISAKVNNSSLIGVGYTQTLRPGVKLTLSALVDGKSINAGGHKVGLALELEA

[11] = target: T11, lipid-binding proteins in A549 cells (Homo sapiens, UniProt P50402); experiment: as above; conditions: A-DA probe vs NoUV
T11 construct: endogenous in cells; host or cells: A549 (PMA-stimulated for the PTGS2 experiments)

[12] = target: T12, lipid-binding proteins in A549 cells (Homo sapiens, UniProt P67812); experiment: as above; conditions: A-DA probe vs NoUV
T12 construct: endogenous in cells; host or cells: A549 (PMA-stimulated for the PTGS2 experiments)

[13] = target: T13, lipid-binding proteins in A549 cells (Homo sapiens, UniProt Q14534); experiment: as above; conditions: A-DA probe vs NoUV
T13 construct: endogenous in cells; host or cells: A549 (PMA-stimulated for the PTGS2 experiments)
T13 sequence (Q14534 whole entry): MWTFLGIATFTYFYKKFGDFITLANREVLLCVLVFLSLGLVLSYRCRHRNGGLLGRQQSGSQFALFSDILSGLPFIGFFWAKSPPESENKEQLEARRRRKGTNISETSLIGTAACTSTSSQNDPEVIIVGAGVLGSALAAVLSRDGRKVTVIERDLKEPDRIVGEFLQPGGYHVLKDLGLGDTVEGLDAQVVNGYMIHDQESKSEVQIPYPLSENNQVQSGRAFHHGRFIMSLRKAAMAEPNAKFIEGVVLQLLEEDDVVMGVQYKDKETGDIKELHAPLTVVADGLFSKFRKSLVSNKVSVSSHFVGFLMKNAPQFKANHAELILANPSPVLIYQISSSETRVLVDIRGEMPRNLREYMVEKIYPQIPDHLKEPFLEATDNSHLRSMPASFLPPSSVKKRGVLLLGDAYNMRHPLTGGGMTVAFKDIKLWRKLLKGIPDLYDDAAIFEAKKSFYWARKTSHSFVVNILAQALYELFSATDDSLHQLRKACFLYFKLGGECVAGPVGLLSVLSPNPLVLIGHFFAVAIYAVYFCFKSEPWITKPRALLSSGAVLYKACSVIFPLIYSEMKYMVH

[14] = target: T14, lipid-binding proteins in A549 cells (Homo sapiens, UniProt Q15738); experiment: as above; conditions: A-DA probe vs NoUV
T14 construct: endogenous in cells; host or cells: A549 (PMA-stimulated for the PTGS2 experiments)

[15] = target: T15, lipid-binding proteins in A549 cells (Homo sapiens, UniProt Q53GQ0); experiment: as above; conditions: A-DA probe vs NoUV
T15 construct: endogenous in cells; host or cells: A549 (PMA-stimulated for the PTGS2 experiments)
T15 sequence (Q53GQ0 whole entry): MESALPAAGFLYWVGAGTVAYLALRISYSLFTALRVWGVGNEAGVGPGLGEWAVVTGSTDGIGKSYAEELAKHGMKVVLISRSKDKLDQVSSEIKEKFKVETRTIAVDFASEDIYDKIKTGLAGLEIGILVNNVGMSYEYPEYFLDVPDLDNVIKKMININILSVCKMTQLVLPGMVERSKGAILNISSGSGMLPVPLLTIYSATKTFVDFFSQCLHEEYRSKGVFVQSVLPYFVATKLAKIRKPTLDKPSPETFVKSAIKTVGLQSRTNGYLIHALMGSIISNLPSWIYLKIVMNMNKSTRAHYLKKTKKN

[16] = target: T16, lipid-binding proteins in A549 cells (Homo sapiens, UniProt Q5HYK3); experiment: as above; conditions: A-DA probe vs NoUV
T16 construct: endogenous in cells; host or cells: A549 (PMA-stimulated for the PTGS2 experiments)

[17] = target: T17, lipid-binding proteins in A549 cells (Homo sapiens, UniProt Q6P1A2); experiment: as above; conditions: A-DA probe vs NoUV
T17 construct: endogenous in cells; host or cells: A549 (PMA-stimulated for the PTGS2 experiments)

[18] = target: T18, lipid-binding proteins in A549 cells (Homo sapiens, UniProt Q7Z2K6); experiment: as above; conditions: A-DA probe vs NoUV
T18 construct: endogenous in cells; host or cells: A549 (PMA-stimulated for the PTGS2 experiments)
T18 sequence (Q7Z2K6 whole entry): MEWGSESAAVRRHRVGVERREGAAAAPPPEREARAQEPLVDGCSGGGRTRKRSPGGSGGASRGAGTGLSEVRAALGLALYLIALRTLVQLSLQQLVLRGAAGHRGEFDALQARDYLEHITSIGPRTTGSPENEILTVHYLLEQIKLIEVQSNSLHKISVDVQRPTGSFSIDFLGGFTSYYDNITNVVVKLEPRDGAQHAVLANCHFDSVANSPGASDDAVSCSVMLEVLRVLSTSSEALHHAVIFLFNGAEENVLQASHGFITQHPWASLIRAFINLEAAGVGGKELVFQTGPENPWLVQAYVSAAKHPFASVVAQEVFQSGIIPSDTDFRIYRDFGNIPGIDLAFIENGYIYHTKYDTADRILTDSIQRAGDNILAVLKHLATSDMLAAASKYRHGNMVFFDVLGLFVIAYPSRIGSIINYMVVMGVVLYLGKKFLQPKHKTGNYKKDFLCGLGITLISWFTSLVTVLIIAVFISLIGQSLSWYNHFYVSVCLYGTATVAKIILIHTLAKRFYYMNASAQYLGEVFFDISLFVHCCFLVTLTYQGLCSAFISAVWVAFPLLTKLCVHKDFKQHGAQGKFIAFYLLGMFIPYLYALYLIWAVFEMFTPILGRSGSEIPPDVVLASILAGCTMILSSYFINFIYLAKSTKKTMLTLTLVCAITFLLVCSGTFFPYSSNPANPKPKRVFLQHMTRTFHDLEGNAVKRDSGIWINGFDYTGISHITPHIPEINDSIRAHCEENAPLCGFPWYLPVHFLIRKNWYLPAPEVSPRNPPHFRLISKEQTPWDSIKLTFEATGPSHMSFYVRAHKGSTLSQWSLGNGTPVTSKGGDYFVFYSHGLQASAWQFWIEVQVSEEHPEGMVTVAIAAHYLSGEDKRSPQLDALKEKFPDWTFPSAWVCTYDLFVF

[19] = target: T19, lipid-binding proteins in A549 cells (Homo sapiens, UniProt Q86XL3); experiment: as above; conditions: A-DA probe vs NoUV
T19 construct: endogenous in cells; host or cells: A549 (PMA-stimulated for the PTGS2 experiments)

[20] = target: T20, lipid-binding proteins in A549 cells (Homo sapiens, UniProt Q8IZV5); experiment: as above; conditions: A-DA probe vs NoUV
T20 construct: endogenous in cells; host or cells: A549 (PMA-stimulated for the PTGS2 experiments)

[21] = target: T21, lipid-binding proteins in A549 cells (Homo sapiens, UniProt Q8N5I4); experiment: as above; conditions: A-DA probe vs NoUV
T21 construct: endogenous in cells; host or cells: A549 (PMA-stimulated for the PTGS2 experiments)
T21 sequence (Q8N5I4 whole entry): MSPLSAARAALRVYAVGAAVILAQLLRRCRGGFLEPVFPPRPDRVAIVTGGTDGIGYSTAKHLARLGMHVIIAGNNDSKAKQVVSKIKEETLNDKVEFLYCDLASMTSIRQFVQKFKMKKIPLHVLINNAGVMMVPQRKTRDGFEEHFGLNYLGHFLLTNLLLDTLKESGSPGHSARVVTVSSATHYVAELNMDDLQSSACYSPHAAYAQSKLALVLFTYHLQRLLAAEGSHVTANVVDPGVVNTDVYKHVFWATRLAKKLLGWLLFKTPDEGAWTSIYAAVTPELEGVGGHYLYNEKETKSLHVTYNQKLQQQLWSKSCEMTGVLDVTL

[22] = target: T22, lipid-binding proteins in A549 cells (Homo sapiens, UniProt Q8NF37); experiment: as above; conditions: A-DA probe vs NoUV
T22 construct: endogenous in cells; host or cells: A549 (PMA-stimulated for the PTGS2 experiments)

[23] = target: T23, lipid-binding proteins in A549 cells (Homo sapiens, UniProt Q96G23); experiment: as above; conditions: A-DA probe vs NoUV
T23 construct: endogenous in cells; host or cells: A549 (PMA-stimulated for the PTGS2 experiments)

[24] = target: T24, lipid-binding proteins in A549 cells (Homo sapiens, UniProt Q96KC8); experiment: as above; conditions: A-DA probe vs NoUV
T24 construct: endogenous in cells; host or cells: A549 (PMA-stimulated for the PTGS2 experiments)
T24 sequence (Q96KC8 48-554): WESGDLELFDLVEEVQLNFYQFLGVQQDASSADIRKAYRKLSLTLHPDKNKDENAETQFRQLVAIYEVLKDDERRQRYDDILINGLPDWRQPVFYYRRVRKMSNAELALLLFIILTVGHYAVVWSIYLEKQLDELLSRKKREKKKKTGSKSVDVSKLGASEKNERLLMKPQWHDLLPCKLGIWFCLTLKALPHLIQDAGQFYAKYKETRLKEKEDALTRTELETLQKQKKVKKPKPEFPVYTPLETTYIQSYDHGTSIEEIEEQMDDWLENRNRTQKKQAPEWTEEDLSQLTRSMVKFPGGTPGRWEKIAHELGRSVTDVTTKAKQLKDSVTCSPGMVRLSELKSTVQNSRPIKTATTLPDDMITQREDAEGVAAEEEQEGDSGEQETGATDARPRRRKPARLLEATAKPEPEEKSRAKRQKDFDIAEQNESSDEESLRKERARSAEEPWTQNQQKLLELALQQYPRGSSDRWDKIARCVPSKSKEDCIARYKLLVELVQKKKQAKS

[25] = target: T25, lipid-binding proteins in A549 cells (Homo sapiens, UniProt Q99536); experiment: as above; conditions: A-DA probe vs NoUV
T25 construct: endogenous in cells; host or cells: A549 (PMA-stimulated for the PTGS2 experiments)
T25 sequence (Q99536 whole entry): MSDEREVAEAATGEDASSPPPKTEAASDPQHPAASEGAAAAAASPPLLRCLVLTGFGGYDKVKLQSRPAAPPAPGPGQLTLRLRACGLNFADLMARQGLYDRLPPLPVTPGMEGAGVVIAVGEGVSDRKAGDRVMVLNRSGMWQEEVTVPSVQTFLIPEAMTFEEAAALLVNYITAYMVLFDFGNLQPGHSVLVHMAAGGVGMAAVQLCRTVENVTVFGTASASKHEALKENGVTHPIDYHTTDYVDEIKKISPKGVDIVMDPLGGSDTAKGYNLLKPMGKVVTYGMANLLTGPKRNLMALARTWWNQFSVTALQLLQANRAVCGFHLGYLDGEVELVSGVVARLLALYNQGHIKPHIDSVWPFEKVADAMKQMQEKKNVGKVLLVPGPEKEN

[26] = target: T26, lipid-binding proteins in A549 cells (Homo sapiens, UniProt Q9BTX1); experiment: as above; conditions: A-DA probe vs NoUV
T26 construct: endogenous in cells; host or cells: A549 (PMA-stimulated for the PTGS2 experiments)

[27] = target: T27, lipid-binding proteins in A549 cells (Homo sapiens, UniProt Q9H6K4); experiment: as above; conditions: A-DA probe vs NoUV
T27 construct: endogenous in cells; host or cells: A549 (PMA-stimulated for the PTGS2 experiments)

[28] = target: T28, lipid-binding proteins in A549 cells (Homo sapiens, UniProt Q9HAW7); experiment: as above; conditions: A-DA probe vs NoUV
T28 construct: endogenous in cells; host or cells: A549 (PMA-stimulated for the PTGS2 experiments)

[29] = target: T29, lipid-binding proteins in A549 cells (Homo sapiens, UniProt Q9NS69); experiment: as above; conditions: A-DA probe vs NoUV
T29 construct: endogenous in cells; host or cells: A549 (PMA-stimulated for the PTGS2 experiments)
T29 sequence (Q9NS69 whole entry): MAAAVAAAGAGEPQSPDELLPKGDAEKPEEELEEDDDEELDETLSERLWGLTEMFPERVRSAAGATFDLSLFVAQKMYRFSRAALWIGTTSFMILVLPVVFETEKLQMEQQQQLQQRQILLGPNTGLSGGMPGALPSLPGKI

[30] = target: T30, lipid-binding proteins in A549 cells (Homo sapiens, UniProt Q9NX47); experiment: as above; conditions: A-DA probe vs NoUV
T30 construct: endogenous in cells; host or cells: A549 (PMA-stimulated for the PTGS2 experiments)
T30 sequence (Q9NX47 whole entry): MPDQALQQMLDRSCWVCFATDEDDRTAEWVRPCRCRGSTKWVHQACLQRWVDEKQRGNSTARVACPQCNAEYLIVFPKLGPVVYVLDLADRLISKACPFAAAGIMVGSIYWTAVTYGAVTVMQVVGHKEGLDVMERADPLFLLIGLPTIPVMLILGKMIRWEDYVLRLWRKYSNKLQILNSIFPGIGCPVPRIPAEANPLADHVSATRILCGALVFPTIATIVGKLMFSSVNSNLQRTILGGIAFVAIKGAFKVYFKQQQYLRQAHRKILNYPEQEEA

[31] = target: T31, lipid-binding proteins in A549 cells (Homo sapiens, UniProt Q9UH99); experiment: as above; conditions: protein SUN2 (Q9UH99), A-DA probe
T31 construct: endogenous in cells; host or cells: A549 (PMA-stimulated for the PTGS2 experiments)

[32] = target: T32, lipid-binding proteins in A549 cells (Homo sapiens, UniProt Q9Y639); experiment: as above; conditions: A-DA probe vs NoUV
T32 construct: endogenous in cells; host or cells: A549 (PMA-stimulated for the PTGS2 experiments)

C#CCCC/C=C\C/C=C\C/C=C\C/C=C\CCCC(=O)NCCC1(C)N=N1 [A-DA, (5Z,8Z,11Z,14Z)-N-(2-(3-methyl-3H-diazirin-3-yl)ethyl)icosa-5,8,11,14-tetraen-19-ynamide]
15.6: SILAC ratio, DHRS3 (O75911) [3]
10.3: SILAC ratio, EMD (O08579) [11]
16.9: SILAC ratio, NSDHL (Q15738) [14]
4.5: SILAC ratio, No UV (A-DA probe versus No UV) [5]
18.4: SILAC ratio, TOMM22 (Q9CPQ3) [29]
20.0: SILAC ratio, No UV (A-DA probe versus No UV), Reep2 (Q8VCD6) [1] | SILAC ratio, PGRMC2 (Q80UU9) [2] | SILAC ratio, PSAP (P07602) [6] | SILAC ratio, VDAC1 (P21796) [7] | SILAC ratio, HMOX2 (P30519) [8] | SILAC ratio, SEC11A (P67812) [12] | SILAC ratio, SQLE (Q14534) [13] | SILAC ratio, HSD17B12 (Q53GQ0) [15] | SILAC ratio, COQ5 (Q5HYK3) [16] | SILAC ratio, LPCAT3 (Q6P1A2) [17] | SILAC ratio, ERMP1 (Q7Z2K6) [18] | SILAC ratio, ANKLE2 (Q86XL3) [19] | SILAC ratio, RDH10 (Q8IZV5) [20] | SILAC ratio, DHRSX (Q8N5I4) [21] | SILAC ratio, LPCAT1 (Q8NF37) [22] | SILAC ratio, DNAJC1 (Q96KC8) [24] | SILAC ratio, TMEM48 (Q8VCB1) [26] | SILAC ratio, OPA3 (Q505D7) [27] | SILAC ratio, UGT1A7 (Q9HAW7) [28] | SILAC ratio, No UV (A-DA probe versus No UV) [31] | SILAC ratio, NPTN (Q9Y639) [32]
13.3: SILAC ratio, CERS2 (Q924Z4) [23]
19.7: SILAC ratio, SGPL1 (O95470) [4] | SILAC ratio, VDAC2 (P45880) [10]
4.1: SILAC ratio, MARCH5 (Q3KNM2) [30]
7.8: SILAC ratio, VAT1 (Q99536) [25]
3.2: SILAC ratio of PTGS2, probe versus No UV ([9]; A-DA 5 μM) | SILAC ratio, PTGS2 (P35354) ([9]; A-DA probe vs NoUV)
